According to PubChem BioAssay AID434974 (The Scripps Research Institute Molecular Screening Center, 2010):
Activity calls are given as the source filed them. How the calls were made is not given here.

Assays:
Test in all cases: receptor and transporter displacement selectivity profile – biochemical, radioligand binding, PDSP, selectivity assay for NOX1 inhibitor project, profiling panel (AID 434974)
[1] = target: 5-hydroxytryptamine receptor 2B (Homo sapiens) (UniProt P41595); settings: Serotonin receptor 5ht2b, at 10 µM, active compounds read high
5-hydroxytryptamine receptor 2B (Homo sapiens), sequence (P41595 whole entry, looked up): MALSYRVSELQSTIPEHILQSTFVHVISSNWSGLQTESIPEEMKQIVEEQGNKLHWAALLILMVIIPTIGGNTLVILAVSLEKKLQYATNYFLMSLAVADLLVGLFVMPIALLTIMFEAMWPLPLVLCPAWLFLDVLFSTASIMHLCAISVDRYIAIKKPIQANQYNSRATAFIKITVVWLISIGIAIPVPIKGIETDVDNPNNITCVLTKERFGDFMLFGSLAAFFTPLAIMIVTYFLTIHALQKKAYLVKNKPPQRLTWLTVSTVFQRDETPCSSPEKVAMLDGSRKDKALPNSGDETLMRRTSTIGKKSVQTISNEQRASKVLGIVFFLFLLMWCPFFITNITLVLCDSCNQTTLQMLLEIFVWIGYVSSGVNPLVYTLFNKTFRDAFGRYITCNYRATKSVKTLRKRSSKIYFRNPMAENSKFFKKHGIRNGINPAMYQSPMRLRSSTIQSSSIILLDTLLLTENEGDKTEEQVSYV

[2] = system: Adrenergic receptor Alpha1A; settings: at 10 µM, active compounds read high
[3] = system: Adrenergic receptor Alpha1B; settings: at 10 µM, active compounds read high
[4] = system: Adrenergic receptor Alpha1D; settings: at 10 µM, active compounds read high
[5] = system: Adrenergic receptor Beta1; settings: at 10 µM, active compounds read high
[6] = system: Adrenergic receptor Beta3; settings: at 10 µM, active compounds read high
[7] = target: Alpha-2A adrenergic receptor (Homo sapiens) (UniProt P08913); settings: Adrenergic receptor Alpha2A, at 10 µM, active compounds read high
[8] = target: Alpha-2B adrenergic receptor (Homo sapiens) (UniProt P18089); settings: Adrenergic receptor Alpha2B, at 10 µM, active compounds read high
Alpha-2B adrenergic receptor (Homo sapiens), sequence (P18089 whole entry, looked up): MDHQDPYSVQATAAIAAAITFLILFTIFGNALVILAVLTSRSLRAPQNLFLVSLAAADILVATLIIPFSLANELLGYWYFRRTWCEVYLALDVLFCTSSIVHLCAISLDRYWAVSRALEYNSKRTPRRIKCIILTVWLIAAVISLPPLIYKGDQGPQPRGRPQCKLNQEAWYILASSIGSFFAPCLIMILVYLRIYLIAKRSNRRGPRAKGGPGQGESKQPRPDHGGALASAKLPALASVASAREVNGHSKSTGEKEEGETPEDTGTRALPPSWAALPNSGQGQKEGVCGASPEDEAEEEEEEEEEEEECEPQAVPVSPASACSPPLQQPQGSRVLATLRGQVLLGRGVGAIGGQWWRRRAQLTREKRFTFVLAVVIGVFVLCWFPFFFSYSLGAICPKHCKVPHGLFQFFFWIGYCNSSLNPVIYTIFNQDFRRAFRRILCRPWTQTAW

[9] = target: Alpha-2C adrenergic receptor (Homo sapiens) (UniProt P18825); settings: Adrenergic receptor Alpha2C, at 10 µM, active compounds read high
Alpha-2C adrenergic receptor (Homo sapiens), sequence (P18825 whole entry, looked up): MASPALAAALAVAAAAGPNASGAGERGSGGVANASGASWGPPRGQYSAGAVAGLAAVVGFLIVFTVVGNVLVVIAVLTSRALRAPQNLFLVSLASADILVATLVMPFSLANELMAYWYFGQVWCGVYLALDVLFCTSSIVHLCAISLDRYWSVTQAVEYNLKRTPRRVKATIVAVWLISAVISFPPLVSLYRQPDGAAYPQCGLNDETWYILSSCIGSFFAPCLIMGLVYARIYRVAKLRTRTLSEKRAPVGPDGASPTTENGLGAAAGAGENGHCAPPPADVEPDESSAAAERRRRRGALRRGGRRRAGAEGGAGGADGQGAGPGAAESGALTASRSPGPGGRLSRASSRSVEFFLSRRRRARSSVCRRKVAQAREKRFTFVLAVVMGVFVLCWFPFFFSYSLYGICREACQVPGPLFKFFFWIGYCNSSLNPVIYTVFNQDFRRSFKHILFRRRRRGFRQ

BZP Rat Brain Site = settings: at 10 µM, active compounds read high
[10] = target: Beta-2 adrenergic receptor (Homo sapiens) (UniProt P07550); settings: Adrenergic receptor Beta2, at 10 µM, active compounds read high
Beta-2 adrenergic receptor (Homo sapiens), sequence (P07550 whole entry, looked up): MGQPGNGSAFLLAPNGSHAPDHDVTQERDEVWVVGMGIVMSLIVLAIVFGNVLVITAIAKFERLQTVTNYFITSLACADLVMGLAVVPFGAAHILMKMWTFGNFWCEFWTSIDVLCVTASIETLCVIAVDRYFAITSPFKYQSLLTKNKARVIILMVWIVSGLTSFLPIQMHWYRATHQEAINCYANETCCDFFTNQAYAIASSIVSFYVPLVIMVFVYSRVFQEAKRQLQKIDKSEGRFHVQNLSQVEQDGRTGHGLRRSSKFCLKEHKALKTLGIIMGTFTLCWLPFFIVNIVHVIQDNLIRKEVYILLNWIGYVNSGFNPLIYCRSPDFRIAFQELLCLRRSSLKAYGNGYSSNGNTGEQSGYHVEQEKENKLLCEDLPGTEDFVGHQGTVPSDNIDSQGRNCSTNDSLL

[11] = system: Biogenic amine transporter DAT; settings: at 10 µM, active compounds read high
[12] = system: Biogenic amine transporter NET; settings: at 10 µM, active compounds read high
[13] = system: Biogenic amine transporter SERT; settings: at 10 µM, active compounds read high
Ca+ Channel = settings: at 10 µM, active compounds read high
[14] = target: Cannabinoid receptor 2 (Homo sapiens) (UniProt P34972); settings: Cannabinoid receptor CB2, at 10 µM, active compounds read high
Cannabinoid receptor 2 (Homo sapiens), sequence (P34972 whole entry, looked up): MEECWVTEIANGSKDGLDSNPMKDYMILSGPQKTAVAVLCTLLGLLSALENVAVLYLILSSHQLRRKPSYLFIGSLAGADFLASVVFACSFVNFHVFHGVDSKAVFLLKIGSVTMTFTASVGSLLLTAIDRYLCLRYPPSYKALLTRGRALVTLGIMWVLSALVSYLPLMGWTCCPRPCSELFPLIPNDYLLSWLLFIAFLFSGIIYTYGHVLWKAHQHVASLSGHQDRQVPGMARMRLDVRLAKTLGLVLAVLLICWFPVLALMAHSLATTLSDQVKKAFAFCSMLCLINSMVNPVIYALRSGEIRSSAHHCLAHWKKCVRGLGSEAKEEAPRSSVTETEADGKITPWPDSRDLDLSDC

Cannabinoid receptor CB1 = settings: at 10 µM, active compounds read high
[15] = target: D(1A) dopamine receptor (Homo sapiens) (UniProt P21728); settings: Dopamine receptor D1, at 10 µM, active compounds read high
D(1A) dopamine receptor (Homo sapiens), sequence (P21728 whole entry, looked up): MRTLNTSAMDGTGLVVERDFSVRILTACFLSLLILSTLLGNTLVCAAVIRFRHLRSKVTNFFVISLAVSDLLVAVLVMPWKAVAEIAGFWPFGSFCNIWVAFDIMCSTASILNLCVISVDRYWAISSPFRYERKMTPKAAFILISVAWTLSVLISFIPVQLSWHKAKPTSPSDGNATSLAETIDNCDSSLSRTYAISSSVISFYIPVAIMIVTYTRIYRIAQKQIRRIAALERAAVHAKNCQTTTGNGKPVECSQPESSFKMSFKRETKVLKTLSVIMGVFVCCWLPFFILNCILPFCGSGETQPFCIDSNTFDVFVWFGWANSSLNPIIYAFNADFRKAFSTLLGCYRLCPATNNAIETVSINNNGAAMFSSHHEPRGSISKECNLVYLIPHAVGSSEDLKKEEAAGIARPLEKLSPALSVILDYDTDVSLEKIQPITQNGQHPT

[16] = target: D(1B) dopamine receptor (Homo sapiens) (UniProt P21918); settings: Dopamine receptor D5, at 10 µM, active compounds read high
[17] = target: D(3) dopamine receptor (Homo sapiens) (UniProt P35462); settings: Dopamine receptor D3, at 10 µM, active compounds read high
D(3) dopamine receptor (Homo sapiens), sequence (P35462 whole entry, looked up): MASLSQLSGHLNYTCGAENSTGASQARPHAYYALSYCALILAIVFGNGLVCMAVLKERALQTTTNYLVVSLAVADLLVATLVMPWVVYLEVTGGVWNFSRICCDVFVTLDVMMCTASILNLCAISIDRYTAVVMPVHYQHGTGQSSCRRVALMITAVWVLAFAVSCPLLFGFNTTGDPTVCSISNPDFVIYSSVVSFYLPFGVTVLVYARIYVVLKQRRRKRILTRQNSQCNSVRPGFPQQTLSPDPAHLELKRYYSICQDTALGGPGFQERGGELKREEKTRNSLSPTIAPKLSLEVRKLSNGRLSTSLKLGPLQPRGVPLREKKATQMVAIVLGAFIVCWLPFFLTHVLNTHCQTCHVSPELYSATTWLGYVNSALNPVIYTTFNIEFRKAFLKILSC

[18] = target: Delta-type opioid receptor (Homo sapiens) (UniProt P41143); settings: Opioid receptor DOR, at 10 µM, active compounds read high
Delta-type opioid receptor (Homo sapiens), sequence (P41143 whole entry, looked up): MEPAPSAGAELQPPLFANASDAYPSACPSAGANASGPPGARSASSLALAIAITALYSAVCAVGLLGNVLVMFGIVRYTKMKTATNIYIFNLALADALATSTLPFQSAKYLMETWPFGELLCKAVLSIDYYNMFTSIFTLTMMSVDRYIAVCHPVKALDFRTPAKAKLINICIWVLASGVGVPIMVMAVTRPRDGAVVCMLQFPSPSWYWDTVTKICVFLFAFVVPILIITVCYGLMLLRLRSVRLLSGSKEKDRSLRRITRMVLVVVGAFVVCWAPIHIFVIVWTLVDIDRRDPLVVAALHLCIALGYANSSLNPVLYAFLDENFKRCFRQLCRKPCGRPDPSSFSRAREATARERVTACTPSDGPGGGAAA

Dopamine receptor D2 = settings: at 10 µM, active compounds read high
Dopamine receptor D4 = settings: at 10 µM, active compounds read high
GABA receptor GABAa a1 = settings: at 10 µM, active compounds read high
GABA receptor GABAa = settings: at 10 µM, active compounds read high
GABA receptor PBR = settings: at 10 µM, active compounds read high
[19] = system: Glutamate receptor NMDA PCP site; settings: at 10 µM, active compounds read high
Histamine receptor H1 = settings: at 10 µM, active compounds read high
Histamine receptor H2 = settings: at 10 µM, active compounds read high
Histamine receptor H3 = settings: at 10 µM, active compounds read high
Histamine receptor H4 = settings: at 10 µM, active compounds read high
[20] = target: Kappa-type opioid receptor (Homo sapiens) (UniProt P41145); settings: Opioid receptor KOR, at 10 µM, active compounds read high
[21] = target: Muscarinic acetylcholine receptor M1 (Homo sapiens) (UniProt P11229); settings: at 10 µM, active compounds read high
Muscarinic acetylcholine receptor M1 (Homo sapiens), sequence (P11229 whole entry, looked up): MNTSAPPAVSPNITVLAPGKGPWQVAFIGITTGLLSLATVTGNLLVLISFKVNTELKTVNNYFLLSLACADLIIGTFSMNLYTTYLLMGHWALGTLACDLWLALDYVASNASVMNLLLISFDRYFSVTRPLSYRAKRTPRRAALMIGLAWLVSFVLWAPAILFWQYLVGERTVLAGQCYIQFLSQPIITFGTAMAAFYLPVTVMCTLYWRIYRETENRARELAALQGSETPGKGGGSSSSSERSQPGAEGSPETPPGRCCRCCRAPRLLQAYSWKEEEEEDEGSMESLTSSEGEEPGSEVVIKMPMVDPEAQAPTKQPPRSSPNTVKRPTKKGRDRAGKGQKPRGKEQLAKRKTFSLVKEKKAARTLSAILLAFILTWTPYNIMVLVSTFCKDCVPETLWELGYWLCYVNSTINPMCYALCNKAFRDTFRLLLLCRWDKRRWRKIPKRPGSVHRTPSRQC

[22] = target: Muscarinic acetylcholine receptor M2 (Homo sapiens) (UniProt P08172); settings: at 10 µM, active compounds read high
[23] = target: Muscarinic acetylcholine receptor M3 (Homo sapiens) (UniProt P20309); settings: at 10 µM, active compounds read high
Muscarinic acetylcholine receptor M3 (Homo sapiens), sequence (P20309 whole entry, looked up): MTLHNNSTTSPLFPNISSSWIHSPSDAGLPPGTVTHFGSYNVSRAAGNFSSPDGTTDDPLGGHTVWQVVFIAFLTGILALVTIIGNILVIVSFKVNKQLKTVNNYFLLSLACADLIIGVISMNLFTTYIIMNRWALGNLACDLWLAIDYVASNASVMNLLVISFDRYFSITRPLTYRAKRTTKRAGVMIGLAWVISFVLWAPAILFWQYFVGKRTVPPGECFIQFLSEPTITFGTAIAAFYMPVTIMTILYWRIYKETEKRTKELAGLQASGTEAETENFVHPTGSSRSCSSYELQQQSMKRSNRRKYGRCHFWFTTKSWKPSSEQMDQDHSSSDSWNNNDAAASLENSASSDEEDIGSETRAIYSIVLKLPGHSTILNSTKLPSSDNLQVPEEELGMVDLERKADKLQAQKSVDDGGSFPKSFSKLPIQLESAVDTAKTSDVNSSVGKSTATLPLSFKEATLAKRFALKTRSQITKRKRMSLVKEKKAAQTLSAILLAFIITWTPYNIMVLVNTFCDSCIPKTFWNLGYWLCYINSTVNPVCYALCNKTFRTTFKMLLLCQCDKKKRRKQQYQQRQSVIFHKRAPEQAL

Muscarinic receptor M4 = settings: at 10 µM, active compounds read high
Muscarinic receptor M5 = settings: at 10 µM, active compounds read high
Nicotinic receptor A2B2 = settings: at 10 µM, active compounds read high
Nicotinic receptor A2B4 = settings: at 10 µM, active compounds read high
Nicotinic receptor A3B2 = settings: at 10 µM, active compounds read high
Nicotinic receptor A3B4 = settings: at 10 µM, active compounds read high
Nicotinic receptor A4B2 = settings: at 10 µM, active compounds read high
Nicotinic receptor A4B4 = settings: at 10 µM, active compounds read high
Opioid receptor MOR = settings: at 10 µM, active compounds read high
[24] = target: Oxytocin receptor (Homo sapiens) (UniProt P30559); settings: at 10 µM, active compounds read high
Oxytocin receptor (Homo sapiens), sequence (P30559 whole entry, looked up): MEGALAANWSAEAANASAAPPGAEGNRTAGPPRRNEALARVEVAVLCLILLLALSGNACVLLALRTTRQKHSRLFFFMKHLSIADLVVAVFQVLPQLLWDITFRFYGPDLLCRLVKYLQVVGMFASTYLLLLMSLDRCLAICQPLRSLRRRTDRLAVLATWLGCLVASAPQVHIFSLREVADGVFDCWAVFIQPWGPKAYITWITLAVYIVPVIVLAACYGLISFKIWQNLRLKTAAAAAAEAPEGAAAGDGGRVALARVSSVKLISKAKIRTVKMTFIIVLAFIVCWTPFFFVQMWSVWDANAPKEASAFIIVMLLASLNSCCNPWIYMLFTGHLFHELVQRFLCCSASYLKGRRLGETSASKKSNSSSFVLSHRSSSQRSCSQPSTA

[25] = system: Prostaglandin receptor EP3; settings: at 10 µM, active compounds read high
[26] = system: Prostaglandin receptor EP4; settings: at 10 µM, active compounds read high
Serotonin receptor 5ht1a = settings: at 10 µM, active compounds read high
Serotonin receptor 5ht1b = settings: at 10 µM, active compounds read high
Serotonin receptor 5ht1d = settings: at 10 µM, active compounds read high
Serotonin receptor 5ht1e = settings: at 10 µM, active compounds read high
Serotonin receptor 5ht2a = settings: at 10 µM, active compounds read high
Serotonin receptor 5ht2c = settings: at 10 µM, active compounds read high
Serotonin receptor 5ht3 = settings: at 10 µM, active compounds read high
Serotonin receptor 5ht5a = settings: at 10 µM, active compounds read high
Serotonin receptor 5ht6 = settings: at 10 µM, active compounds read high
Serotonin receptor 5ht7 = settings: at 10 µM, active compounds read high
Sigma receptor 1 = settings: at 10 µM, active compounds read high
Sigma receptor 2 = settings: at 10 µM, active compounds read high
Vasopressin receptor V1A = settings: at 10 µM, active compounds read high
Vasopressin receptor V1B = settings: at 10 µM, active compounds read high
Vasopressin receptor V2 = settings: at 10 µM, active compounds read high

## CN1c2ccccc2Sc2cc(N)ccc21
[1]
  inhibition: 84.3%
[2]
  inhibition: 36.3% (inactive)
[3]
  inhibition: 38.4% (inactive)
[4]
  inhibition: 23.8% (inactive)
[5]
  inhibition: 23.5% (inactive)
[6]
  inhibition: 3.5% (inactive)
[7]
  inhibition: 50.7%
[8]
  inhibition: 58.8%
[9]
  inhibition: 98.2%
BZP Rat Brain Site
  inhibition: 44.8% (inactive)
[10]
  inhibition: -0.9% (inactive)
[11]
  inhibition: 16% (inactive)
[12]
  inhibition: 60.5%
[13]
  inhibition: 16.4% (inactive)
Ca+ Channel
  inhibition: -19.4% (inactive)
[14]
  inhibition: 3.8% (inactive)
Cannabinoid receptor CB1
  inhibition: 5% (inactive)
[15]
  inhibition: 23.6% (inactive)
[16]
  inhibition: 16.8% (inactive)
[17]
  inhibition: 59.2%
[18]
  inhibition: -0.5% (inactive)
Dopamine receptor D2
  inhibition: 22.6% (inactive)
Dopamine receptor D4
  inhibition: 34.7% (inactive)
GABA receptor GABAa a1
  inhibition: 16.2% (inactive)
GABA receptor GABAa
  inhibition: 25% (inactive)
GABA receptor PBR
  inhibition: 32.1% (inactive)
[19]
  inhibition: 25% (inactive)
Histamine receptor H1
  inhibition: 46.4% (inactive)
Histamine receptor H2
  inhibition: 43% (inactive)
Histamine receptor H3
  inhibition: -2.4% (inactive)
Histamine receptor H4
  inhibition: 10.1% (inactive)
[20]
  inhibition: 16.3% (inactive)
[21]
  inhibition: 1.1% (inactive)
[22]
  inhibition: 22.4% (inactive)
[23]
  inhibition: -5.8% (inactive)
Muscarinic receptor M4
  inhibition: 19.3% (inactive)
Muscarinic receptor M5
  inhibition: 2.3% (inactive)
Nicotinic receptor A2B2
  inhibition: -4% (inactive)
Nicotinic receptor A2B4
  inhibition: 4% (inactive)
Nicotinic receptor A3B2
  inhibition: 4% (inactive)
Nicotinic receptor A3B4
  inhibition: 0% (inactive)
Nicotinic receptor A4B2
  inhibition: 1% (inactive)
Nicotinic receptor A4B4
  inhibition: 7% (inactive)
Opioid receptor MOR
  inhibition: -18% (inactive)
[24]
  inhibition: 38.3% (inactive)
[25]
  inhibition: 0% (inactive)
[26]
  inhibition: 45.5% (inactive)
Serotonin receptor 5ht1a
  inhibition: 34.4% (inactive)
Serotonin receptor 5ht1b
  inhibition: 11.3% (inactive)
Serotonin receptor 5ht1d
  inhibition: 16.1% (inactive)
Serotonin receptor 5ht1e
  inhibition: 13.1% (inactive)
Serotonin receptor 5ht2a
  inhibition: 33.2% (inactive)
Serotonin receptor 5ht2c
  inhibition: 62.4%
Serotonin receptor 5ht3
  inhibition: 1.4% (inactive)
Serotonin receptor 5ht5a
  inhibition: 45.6% (inactive)
Serotonin receptor 5ht6
  inhibition: 30.8% (inactive)
Serotonin receptor 5ht7
  inhibition: -5.7% (inactive)
Sigma receptor 1
  inhibition: 50.1%
Sigma receptor 2
  inhibition: 9% (inactive)
Vasopressin receptor V1A
  inhibition: 4% (inactive)
Vasopressin receptor V1B
  inhibition: 8.9% (inactive)
Vasopressin receptor V2
  inhibition: -5.5% (inactive)
